Experimental findings from the supplement of paper PMC9103864 are described below.

Test [1] deals with BMSC (primary human bone marrow mesenchymal stromal cells). Description: absolute EC50 for viability; higher = less sensitive.
For test [2] the test system is unchanged. As to the kind of experiment: drug sensitivity score (DSS); higher = more sensitive.

For the compound `O=c1ncn2nc(Sc3ccc(F)cc3F)ccc2c1-c1c(Cl)cccc1Cl` [Neflamapimod], in test [1], the “absolute EC50 for viability” value was above 10 µM. The same compound yielded a drug sensitivity score in test [2] of 0.5.

As for `Cc1cnc(Nc2ccc(OCCN3CCCC3)cc2)nc1Nc1cccc(S(=O)(=O)NC(C)(C)C)c1` [Fedratinib], the “absolute EC50 for viability” value in test [1] was determined as 1.47 µM. The drug sensitivity score in test [2] was found to be 9.3.

For the compound `Nc1nc(OCc2cc(Br)cs2)c2[nH]cnc2n1` [Lomeguatrib], the “absolute EC50 for viability” value in test [1] is above 10 µM. The drug sensitivity score in test [2] stood at 0.

As to `C=C1C[C@@H]2CC[C@@]34C[C@H]5O[C@H]6[C@@H](O3)[C@H]3O[C@H](CC[C@@H]3O[C@H]6[C@H]5O4)CC(=O)C[C@@H]3[C@@H](OC)[C@@H](C[C@H](O)CN)O[C@H]3C[C@H]3O[C@@H](CC[C@@H]1O2)C[C@@H](C)C3=C` [Eribulin], in test [1], the “absolute EC50 for viability” value was above 1 µM. Also, in test [2], the drug sensitivity score is 12.

Consider `CO[C@H]1C[C@@H]2CC[C@@H](C)[C@@](O)(O2)C(=O)C(=O)N2CCCC[C@H]2C(=O)O[C@H]([C@H](C)C[C@@H]2CC[C@@H](O)[C@H](OC)C2)CC(=O)[C@H](C)/C=C(\C)[C@@H](O)[C@@H](OC)C(=O)[C@H](C)C[C@H](C)/C=C/C=C/C=C/1C` [Sirolimus], for which, in test [1], the “absolute EC50 for viability” value was above 0.1 µM. The same compound registered a drug sensitivity score in test [2] of 4.2.

Consider `CCN(CC)CCN(Cc1ccc(-c2ccc(C(F)(F)F)cc2)cc1)C(=O)Cn1c(SCc2ccc(F)cc2)nc(=O)c2c1CCC2` [Darapladib], for which the “absolute EC50 for viability” value in test [1] was above 1 µM. Besides, the drug sensitivity score in test [2] stood at 0.

For the compound `c1ccc2n[se]nc2c1` [BCI], the “absolute EC50 for viability” value in test [1] stood at 2.55 µM. Further, the drug sensitivity score in test [2] amounted to 14.9.

Take `COc1cc2nccc(Oc3ccc(NC(=O)C4(C(=O)Nc5ccc(F)cc5)CC4)cc3)c2cc1OC` [Cabozantinib]: the “absolute EC50 for viability” value in test [1] was above 1 µM. The compound also displayed a drug sensitivity score in test [2] of 3.6.

Consider `CC1(C)NC(=O)N(c2ccc([N+](=O)[O-])c(C(F)(F)F)c2)C1=O` [Nilutamide], for which the “absolute EC50 for viability” value in test [1] was above 10 µM. This compound came in with a drug sensitivity score in test [2] of 0.

Take `CO[C@H]1C(=O)[C@]2(C)[C@@H](OC)C[C@H]3OC[C@@]3(OC(C)=O)[C@H]2[C@H](OC(=O)c2ccccc2)[C@]2(O)C[C@H](OC(=O)[C@H](O)[C@@H](NC(=O)OC(C)(C)C)c3ccccc3)C(C)=C1C2(C)C` [Cabazitaxel]: in test [1], the “absolute EC50 for viability” value is above 1 µM. In addition, in test [2], the drug sensitivity score stood at 7.2.

Turning to `COc1cc(OC)cc(N(CCNC(C)C)c2ccc3ncc(-c4cnn(C)c4)nc3c2)c1` [Erdafitinib], in test [1], the “absolute EC50 for viability” value is above 1 µM. In test [2], this compound displayed a drug sensitivity score of 2.2.

As for `Cc1cc(F)c(C(=O)Nc2cccc(-c3nncn3C(C)C)n2)cc1-n1cnc(C2CC2)c1` [Selonsertib], the “absolute EC50 for viability” value in test [1] is above 1 µM. This compound also had a drug sensitivity score in test [2] of 0.

Regarding `C[C@@H]1CN(CC(=O)Nc2ccc3c(c2)Cc2cccc(-c4cc(=O)cc(N5CCOCC5)o4)c2S3)C[C@H](C)O1`, the “absolute EC50 for viability” value in test [1] was above 25 µM. For the same compound, the drug sensitivity score in test [2] is 0.6.

On to `N#Cc1ccnc(N2C(=O)CC[C@H]2C(=O)N(c2cncc(F)c2)[C@H](C(=O)NC2CC(F)(F)C2)c2ccccc2Cl)c1` [Ivosidenib], for which, in test [1], the “absolute EC50 for viability” value is above 10 µM. The same compound showed a drug sensitivity score in test [2] of 0.

Consider `CN(C)CC#Cc1ccc(OCCCc2sc(N3CCc4cccc(C(=O)Nc5nc6ccccc6s5)c4C3)nc2C(=O)O)c(F)c1`, for which the “absolute EC50 for viability” value in test [1] is above 10 µM. Moreover, the drug sensitivity score in test [2] was found to be 0.

As for `O=C1NC(=O)[C@@H](c2cn3c4c(cccc24)CCC3)[C@@H]1c1c[nH]c2ccccc12` [Tivantinib], the “absolute EC50 for viability” value in test [1] was above 1 µM. The same compound returned a drug sensitivity score in test [2] of 0.

`Cc1ccc(-c2cc(C(F)(F)F)nn2-c2ccc(S(N)(=O)=O)cc2)cc1` [Celecoxib]: the “absolute EC50 for viability” value in test [1] was above 10 µM. For the same compound, the drug sensitivity score in test [2] is 0.

In the case of `COC(=O)c1ccc2c(c1)[nH]c1ncnc(NCCCN3CCCCC3)c12` [UM729], the “absolute EC50 for viability” value in test [1] was above 10 µM. The compound further returned a drug sensitivity score in test [2] of 3.3.

Consider `C[C@@H]1C[C@H]2[C@@H]3CCC4=CC(=O)C=C[C@]4(C)[C@@]3(F)[C@@H](O)C[C@]2(C)[C@@]1(O)C(=O)CO` [Dexamethasone], for which the “absolute EC50 for viability” value in test [1] was above 10 µM. The drug sensitivity score in test [2] came to 0.

With `COc1ccc(COc2cc3oc(=O)c4cc(C(C)O)ccc4c3cc2OC)cc1` (configuration not stated) [Palomid-529], the “absolute EC50 for viability” value in test [1] was above 10 µM. In addition, the drug sensitivity score in test [2] amounted to 0.

Consider `CC[C@@H]1C(=O)OC[C@@H]1Cc1cncn1C` [Pilocarpine], for which the “absolute EC50 for viability” value in test [1] was above 40 µM. The compound further showed a drug sensitivity score in test [2] of 0.

In the case of `CC(C)NC[C@@H](C(=O)N1CCN(c2ncnc3c2[C@H](C)C[C@H]3O)CC1)c1ccc(Cl)cc1` [Ipatasertib], the “absolute EC50 for viability” value in test [1] was above 10 µM. The drug sensitivity score in test [2] was determined as 4.7.

For the compound `Nc1ncn([C@H]2C[C@H](O)[C@@H](CO)O2)c(=O)n1` [Decitabine], the “absolute EC50 for viability” value in test [1] was above 10 µM. For the same compound, the drug sensitivity score in test [2] is 0.

On to `Cc1c(N)nc([C@H](CC(N)=O)NC[C@H](N)C(N)=O)nc1C(=O)N[C@H](C(=O)N[C@H](C)[C@@H](O)[C@H](C)C(=O)N[C@H](C(=O)NCCc1nc(-c2nc(C(=O)NCCC[S+](C)C)cs2)cs1)[C@@H](C)O)[C@@H](OC1OC(CO)C(O)C(O)C1OC1OC(CO)C(O)C(OC(N)=O)C1O)c1cnc[nH]1` (some centres not stated) [Bleomycin], for which, in test [1], the “absolute EC50 for viability” value is above 10 µM. Moreover, in test [2], the drug sensitivity score came to 2.5.

As for `Cc1nc(-c2cn3c(n2)-c2ccc(-c4cnn(C(C)(C)C(N)=O)c4)cc2OCC3)n(C(C)C)n1` [Taselisib], the “absolute EC50 for viability” value in test [1] was above 1 µM. This compound also gave a drug sensitivity score in test [2] of 8.9.

`COc1cc([C@@H]2c3cc4c(cc3[C@@H](O[C@@H]3O[C@@H]5CO[C@@H](c6cccs6)O[C@H]5[C@H](O)[C@H]3O)[C@H]3COC(=O)[C@H]23)OCO4)cc(OC)c1O` [Teniposide]: the “absolute EC50 for viability” value in test [1] is above 10 µM. In addition, the drug sensitivity score in test [2] came to 0.

`C[C@H]1O[C@@H](O[C@H]2[C@@H](O)C[C@H](O[C@H]3[C@@H](O)C[C@H](O[C@H]4CC[C@@]5(C)[C@H](CC[C@@H]6[C@@H]5C[C@@H](O)[C@]5(C)[C@@H](C7=CC(=O)OC7)CC[C@]65O)C4)O[C@@H]3C)O[C@@H]2C)C[C@H](O)[C@@H]1O` [Digoxin]: the “absolute EC50 for viability” value in test [1] came to 0.0529 µM. The compound also displayed a drug sensitivity score in test [2] of 13.7.

As for `C[C@H]1Oc2cc(cnc2N)-c2c(nn(C)c2C#N)CN(C)C(=O)c2ccc(F)cc21`, the “absolute EC50 for viability” value in test [1] is above 1 µM. This compound also registered a drug sensitivity score in test [2] of 0.2.

In the case of `CCNC(=O)C[C@@H]1N=C(c2ccc(Cl)cc2)c2cc(OC)ccc2-n2c(C)nnc21` [Molibresib], in test [1], the “absolute EC50 for viability” value is above 10 µM. In test [2], the drug sensitivity score was determined as 3.3.

Regarding `Nc1ncnc2c1nc(Cl)n2[C@@H]1O[C@H](CO)[C@@H](O)[C@H]1O` [8-chloro-adenosine], in test [1], the “absolute EC50 for viability” value stood at 5.35 µM. The drug sensitivity score in test [2] stood at 10.9.

As to `CC(C)c1c(C(=O)Nc2ccccc2)c(-c2ccccc2)c(-c2ccc(F)cc2)n1CC[C@@H](O)C[C@@H](O)CC(=O)O` [Atorvastatin], the “absolute EC50 for viability” value in test [1] was found to be 8.18 µM. The drug sensitivity score in test [2] came out at 3.1.

Consider `Cc1c(F)cc(C(=O)NC2CC2)cc1-c1ccc(C(=O)NCC(C)(C)C)cn1` [Losmapimod], for which the “absolute EC50 for viability” value in test [1] was above 10 µM. The same compound had a drug sensitivity score in test [2] of 0.

As to `CC1(C)CCC(CN2CCN(c3ccc(C(=O)NS(=O)(=O)c4ccc(NCC5CCOCC5)c([N+](=O)[O-])c4)c(Oc4cnc5[nH]ccc5c4)c3)CC2)=C(c2ccc(Cl)cc2)C1` [Venetoclax], the “absolute EC50 for viability” value in test [1] was above 1 µM. This compound displayed a drug sensitivity score in test [2] of 0.

`COCCOc1cnc2ccn([C@H](C)c3nnc4c(F)cc(-c5cnn(C)c5)cn34)c(=O)c2c1` [AMG-337]: in test [1], the “absolute EC50 for viability” value turned out to be 9.93 µM. Moreover, the drug sensitivity score in test [2] was found to be 0.

Take `C=CC(=O)N1CCC[C@@H](n2nc(-c3ccc(Oc4ccccc4)cc3)c3c(N)ncnc32)C1` [Ibrutinib]: the “absolute EC50 for viability” value in test [1] is above 1 µM. This compound also yielded a drug sensitivity score in test [2] of 0.

Take `C=C1C[C@@H]2[C@H](CC[C@]3(C)C(=O)CC[C@@H]23)[C@@]2(C)C=CC(=O)C=C12` [Exemestane]: the “absolute EC50 for viability” value in test [1] was above 10 µM. In addition, the drug sensitivity score in test [2] came out at 0.

As for `C[C@]1(O)C[C@@H](c2nc(-c3ccc4ccc(-c5ccccc5)nc4c3)c3c(N)nccn32)C1` [Linsitinib], the “absolute EC50 for viability” value in test [1] was above 10 µM. For the same compound, the drug sensitivity score in test [2] was 2.9.

As to `O=C(Nc1cnn2ccc(N3CCC[C@@H]3c3cc(F)ccc3F)nc12)N1CC[C@H](O)C1` [Larotrectinib], the “absolute EC50 for viability” value in test [1] was above 1 µM. The drug sensitivity score in test [2] is 0.

For `CN(Cc1cnc2nc(N)nc(N)c2n1)c1ccc(C(=O)N[C@@H](CCC(=O)O)C(=O)O)cc1` [Methotrexate], the “absolute EC50 for viability” value in test [1] was above 5 µM. Besides, in test [2], the drug sensitivity score stood at 4.7.

With `CC(C)(C)c1cc(NC(=O)Nc2ccc(-c3cn4c(n3)sc3cc(OCCN5CCOCC5)ccc34)cc2)no1` [Quizartinib], the “absolute EC50 for viability” value in test [1] was above 1 µM. For the same compound, in test [2], the drug sensitivity score turned out to be 2.2.

Regarding `C[C@H]1CNCCCN1S(=O)(=O)c1cccc2cncc(F)c12` [Ripasudil], the “absolute EC50 for viability” value in test [1] was above 10 µM. Further, the drug sensitivity score in test [2] came out at 1.1.

Turning to `N#CCNC(=O)c1ccc(-c2ccnc(Nc3ccc(N4CCOCC4)cc3)n2)cc1` [Momelotinib], in test [1], the “absolute EC50 for viability” value was above 10 µM. Further, the drug sensitivity score in test [2] was found to be 5.1.

Turning to `CC/C(=C(\c1ccc(O)cc1)c1ccc(OCCN(C)C)cc1)c1ccccc1` [4-hydroxytamoxifen], the “absolute EC50 for viability” value in test [1] is 9.93 µM. For the same compound, the drug sensitivity score in test [2] worked out at 0.

Take `Cc1cc(Nc2nc(N[C@@H](C)c3ncc(F)cn3)ncc2Cl)[nH]n1` [AZD1480]: the “absolute EC50 for viability” value in test [1] is above 1 µM. Further, the drug sensitivity score in test [2] amounted to 0.6.

As to `O=C(NOCCO)c1ccc2cncn2c1Nc1ccc(I)cc1F` [GDC-0623], the “absolute EC50 for viability” value in test [1] was above 2.5 µM. This compound also had a drug sensitivity score in test [2] of 0.

Take `O=C(/C=C/c1cccnc1)NCCCCC1CCN(C(=O)c2ccccc2)CC1` [Daporinad]: the “absolute EC50 for viability” value in test [1] was above 1 µM. In addition, the drug sensitivity score in test [2] was determined as 0.2.
